The source of these data is patent publication US4968717A, “Phenylacetonitriles which are substituted by basic groups, their preparation and drugs containing these substances” (BASF Aktiengesellschaft, priority 1986, dated 1990).

The subject of the first test is serotonin.
Test: not given
The settings on record: literature; versus known serotonin antagonists; cited from earlier work.
In the case of `COc1ccc(CCN(C)CCCC(C#N)(c2cc(OC)c(OC)c(OC)c2)C(C)C)cc1OC` (stereo not shown) [Gallopamil, reference compound], the “antiserotonin action compared with known serotonin antagonists” value was “not very pronounced”. On to `COc1ccc(CCN(C)CCCC(C#N)(c2ccc(OC)c(OC)c2)C(C)C)cc1OC` (stereo not shown) [Verapamil], for which the “antiserotonin action compared with known serotonin antagonists” value is given as “not very pronounced”.

A further test relates to serotonin-induced increase in blood pressure. Description: inhibition of the serotonin-induced increase in blood pressure in the pithed rat on intravenous administration. The format is in vivo, male Sprague-Dawley rats. The settings on record: at dose 0.0464 mg/kg. From the text: Pithing is effected by means of a rod through the orbit. […] The criterium for effectiveness of a substance is the relative inhibition (Δ%) of the serotonin-induced increase in blood pressure (ΔmmHg). The valuation was effected quantitatively as an analysis of the linear regression (y=a+b x) of log dose (mg/kg) and relative inhibition (Δ%) of the serotonin-induced increase in blood pressure.
Consider `COc1cc(CCN(C)CCCC(C#N)(c2ccc(Cl)cc2)C(C)C)cc(OC)c1` (stereo not shown) [Example 42, 5-[(3,5-dimethoxyphenethyl)-methylamino]-2-(4-chlorophenyl)-2-isopropylvaleronitrile], for which the “relative inhibition (Δ%) of the serotonin-induced increase in blood pressure” value was 19%.

The test is the same for the next values; noted with them: at dose 0.1 mg/kg.
For the compound `COc1ccc(CCN(C)CCCC(C#N)(c2cc(OC)c(OC)c(OC)c2)C(C)C)cc1OC` (stereo not shown) [Gallopamil, reference compound], the “relative inhibition (Δ%) of the serotonin-induced increase in blood pressure” value worked out at 22%.

Still in this test, the particulars now being: serotonin 0.0215 mg/kg i.v., linear regression of log dose and relative inhibition.
For the compound “5-[(3,5-dimethoxyphenethyl)-methylamino]-2-(β,β,β-trifluoroethoxyphenyl)-2-isopropylvaleronitrile [Example 30]”, the “ED 50% (dose which inhibits the serotonin-induced increase in blood pressure by 50%)” value was 0.1 mg/kg.

Staying with this test, now noted: serotonin 0.0215 mg/kg i.v., linear regression of log dose and relative inhibition, read-out: ED 50% (dose which inhibits the serotonin-induced increase in blood pressure by 50%).
On to `COc1cccc(CCN(C)CCCC(C#N)(c2ccc(OC)c(OC)c2)C(C)C)c1` (racemic) [Example 57, (RS)-5-[(3-methoxyphenethyl)-methylamino]-2-(3,4-dimethoxyphenyl)-2-isopropylvaleronitrile], for which the ED50 worked out at 0.0423 mg/kg. For the compound `COc1cc(CCN(C)CCCC(C#N)(c2cccc(OC)c2)C(C)C)cc(OC)c1` (stereo not shown) [Example 1, 5-[(3,5-Dimethoxyphenethyl)-methylamino]-2-(3-methoxyphenyl)-2-isopropylvaleronitrile], the ED50 was 0.0464 mg/kg.

On to `COc1cccc(CCN(C)CCCC(C#N)(c2cc(OC)cc(OC)c2)C(C)C)c1` (stereo not shown) [Example 2, 5-[(3-Methoxyphenethyl)-methylamino]-2-(3,5-dimethoxyphenyl)-2-isopropylvaleronitrile], for which the ED50 amounted to 0.073 mg/kg. Turning to `COc1cccc(C(C#N)(CCCN(C)CCc2ccccc2)C(C)C)c1` (stereo not shown) [Example 3, 5-[(Phenethyl)-methylamino]-2-(3-methoxyphenyl)-2-isopropylvaleronitrile], the ED50 was determined as 0.0464 mg/kg.

For `COc1cccc(CCN(C)CCCC(C#N)(c2cccc(OC)c2)C(C)C)c1` (stereo not shown) [Example 4, 5-[(3-Methoxyphenethyl)-methylamino]-2-(3-methoxy-phenyl)-2-isopropylvaleronitrile], the ED50 was 0.0318 mg/kg. On to `COc1cc(OC)cc(C(C#N)(CCCN(C)CCc2ccccc2)C(C)C)c1` (stereo not shown) [Example 5, 5-[(Phenethyl)methylamino]-2-(3,5-dimethoxyphenyl)-2-isopropylvaleronitrile], for which the ED50 turned out to be 0.0464 mg/kg. As for `COc1cc(OC)cc(C(C#N)(CCCN(C)CCc2ccc(Cl)cc2)C(C)C)c1` (stereo not shown) [Example 6, 5-[(4-Chlorophenethyl)-methylamino]-2-(3,5-dimethoxyphenyl)-2-isopropylvaleronitrile], the ED50 stood at 0.1 mg/kg. For the compound `COc1cc(OC)cc(C(C#N)(CCCN(C)CCc2ccc(Cl)c(Cl)c2)C(C)C)c1` (stereo not shown) [Example 7, 5-[(3,4-Dichlorophenethyl)-methylamino]-2-(3,5-dimethoxyphenyl)-2-isopropylvaleronitrile], the ED50 worked out at 0.1 mg/kg. Consider `COc1cc(OC)cc(C(C#N)(CCCN(C)CCc2cccc(C(F)(F)F)c2)C(C)C)c1` (stereo not shown) [Example 8, 5-[(3-Trifluoromethylphenethyl)-methylamino]-2-(3,5-dimethoxyphenyl)-2-isopropylvaleronitrile], for which the ED50 was found to be 0.0499 mg/kg. On to `COc1cccc(CCN(C)CCCC(C#N)(c2ccccc2)C(C)C)c1` (stereo not shown) [Example 13, 5-[(3-methoxyphenethyl)-methylamino]-2-phenyl-2-isopropylvaleronitrile], for which the ED50 stood at 0.0464 mg/kg. Consider `COc1cc(CCN(C)CCCC(C#N)(c2ccccc2)C(C)C)cc(OC)c1` (stereo not shown) [Example 14, 5-[(3,5-dimethoxyphenethyl)-methylamino]-2-phenyl-2-isopropylvaleronitrile], for which the ED50 is 0.0464 mg/kg.

Take `CCOc1cccc(C(C#N)(CCCN(C)CCc2cc(OC)cc(OC)c2)C(C)C)c1` (stereo not shown) [Example 17, 5-[(3,5-dimethoxyphenethyl)-methylamino]-2-(3-ethoxy-phenyl)-2-isopropylvaleronitrile]: the ED50 turned out to be 0.1 mg/kg.

On to `CCOc1cc(CCN(C)CCCC(C#N)(c2cc(OC)cc(OC)c2)C(C)C)cc(OCC)c1` (stereo not shown) [Example 19, 5-[(3,5-diethoxyphenethyl)-methylamino]-2-(3,5-dimethoxyphenyl)-2-isopropylvaleronitrile], for which the ED50 amounted to 0.1 mg/kg. Regarding `COc1cc(OC)cc(C(C#N)(CCCN(C)CCc2ccc(C)c(C)c2)C(C)C)c1` (stereo not shown) [Example 20, 5-[(3,4-xylylethyl)-methylamino]-2-(3,5-dimethoxyphenyl)-2-isopropylvaleronitrile], the ED50 worked out at 0.1 mg/kg.

As to `CCOc1cc(CCN(C)CCCC(C#N)(c2ccccc2)C(C)C)cc(OCC)c1` (stereo not shown) [Example 24, 5-[(3,5-diethoxyphenethyl)-methylamino]-2-phenyl-2-isopropylvaleronitrile], the ED50 worked out at 0.1 mg/kg. Same read-out and setting: then `COc1cc(OC)cc(C(C#N)(CCCN(C)CCc2ccc3c(c2)OCO3)C(C)C)c1` (stereo not shown) [Example 27, 5-[(3,4-methylenedioxyphenethyl)-methylamino]-2-(3,5-dimethoxyphenyl)-2-isopropylvaleronitrile], with 0.0464 mg/kg; and `C=CCC(C#N)(CCCN(C)CCc1ccccc1)c1cccc(Cl)c1` (stereo not shown) [Example 31, 5-[(phenethyl)-methylamino]-2-(3-chlorophenyl)-2-allylvaleronitrile], with 0.464 mg/kg; and `C=CCC(C#N)(CCCN(C)CCc1cccc(OC)c1)c1cccc(Cl)c1` (stereo not shown) [Example 32, 5-[(3-methoxyphenethyl)-methylamino]-2-(3-chlorophenyl)-2-allylvaleronitrile], with 0.316 mg/kg. For `COc1cccc(CCN(C)CCCC(C#N)(c2cc(OC)c(OC)c(OC)c2)C(C)C)c1` (stereo not shown) [Example 36, 5-[(3-methoxyphenethyl)-methylamino]-2-(3,4,5-trimethoxyphenyl)-2-isopropylvaleronitrile], the ED50 amounted to 0.0464 mg/kg. With `COc1cc(C(C#N)(CCCN(C)CCc2cccc([N+](=O)[O-])c2)C(C)C)cc(OC)c1OC` (stereo not shown) [Example 37, 5-[(3-nitrophenethyl)-methylamino]-2-(3,4,5-trimethoxyphenyl)-2-isopropylvaleronitrile], the ED50 came out at 0.0464 mg/kg. On the same count and under the same terms, then `COc1cc(C(C#N)(CCCN(C)CCc2cccc(Cl)c2)C(C)C)cc(OC)c1OC` (stereo not shown) [Example 38, 5-[(3-chlorophenethyl)-methylamino]-2-(3,4,5-trimethoxyphenyl)-2-isopropylvaleronitrile], with 0.0681 mg/kg; and `COc1cc(C(C#N)(CCCN(C)CCc2ccc3c(c2)COCO3)C(C)C)cc(OC)c1OC` (stereo not shown) [Example 39, 5-[(1,3-benzodioxan-6-ylethyl)-methylamino]-2-(3,4,5-trimethoxyphenyl)-2-isopropylvaleronitrile], with 0.0395 mg/kg; and `COc1ccc(C(C#N)(CCCN(C)CCc2ccc(Cl)c(Cl)c2)C(C)C)cc1OC` (stereo not shown) [Example 40, 5-[(3,4-dichlorophenethyl)-methylamino]-2-(3,4-dimethoxyphenyl)-2-isopropylvaleronitrile], with 0.1 mg/kg.

As to `COc1cc(CCN(C)CCCC(C#N)(c2ccc(Cl)c(Cl)c2)C(C)C)cc(OC)c1` (stereo not shown) [Example 41, 5-[(3,5-dimethoxyphenethyl)-methylamino]-2-(3,4-dichlorophenyl)-2-isopropylvaleronitrile], the ED50 worked out at 0.1 mg/kg. On the same count and under the same terms, then `COc1cc(CCN(C)CCCC(C#N)(c2ccc(Cl)cc2)C(C)C)cc(OC)c1` (stereo not shown) [Example 42, 5-[(3,5-dimethoxyphenethyl)-methylamino]-2-(4-chlorophenyl)-2-isopropylvaleronitrile], with above 0.0464 mg/kg; and `COc1cc(CCN(C)CCCC(C#N)(C(C)C)C2CCc3ccccc3C2)cc(OC)c1` (stereo not shown) [Example 43, 5-[(3,5-dimethoxyphenethyl)-methylamino]-2-(1,2,3,4-tetrahydronaphth-2-yl)-2-isopropylvaleronitrile], with 0.215 mg/kg; and `CCOc1cccc(C(C#N)(CCCN(C)CCc2ccc(OC)c(OC)c2)C(C)C)c1` (stereo not shown) [Example 44, 5-[(3,4-dimethoxyphenethyl)-methylamino]-2-(3-ethoxy-phenyl)-2-isopropylvaleronitrile], with 0.0464 mg/kg.

For `COc1cccc(CCN(C)CCC[C@@](C#N)(c2ccc(OC)c(OC)c2)C(C)C)c1` [Example 58, (S)-5-[(3-methoxyphenethyl)-methylamino]-2-(3,4-dimethoxyphenyl)-2-isopropylvaleronitrile], the ED50 is 0.0201 mg/kg.

For `COc1cc(CCN(C)CCCC(C#N)(c2cc(OC)cc(OC)c2)C(C)C)cc(OC)c1` (stereo not shown) [Example 59, 5-[(3,5-dimethoxyphenethyl)-methylamino]-2-(3,5-dimethoxyphenyl)-2-isopropylvaleronitrile], the ED50 was 0.0464 mg/kg. For `COc1cc(C(C#N)(CCCN(C)CCc2ccccc2)C(C)C)cc(OC)c1OC` (stereo not shown) [Example 60, 5-[(phenethyl)-methylamino]-2-(3,4,5-trimethoxyphenyl)-2-isopropylvaleronitrile], the ED50 stood at 0.0464 mg/kg. Regarding `COc1cc(C(C#N)(CCCN(C)CCc2cccc(C(F)(F)F)c2)C(C)C)cc(OC)c1OC` (stereo not shown) [Example 61, 5-[(3-trifluoromethylphenethyl)-methylamino]-2-(3,4,5-trimethoxyphenyl)-2-isopropylvaleronitrile], the ED50 was found to be 0.0681 mg/kg. Still for that read-out and setting: then `COc1ccc(CCN(C)CCCC(C#N)(c2cc(OC)c(OC)c(OC)c2)C(C)C)cc1OC` (stereo not shown) [Gallopamil, reference compound], with 0.1 mg/kg.
